Some test systems named below: T47D; HL-60; NCI/ADR-RES; A498; EKVX; NCI-H460; U-251; MDA-MB-231; SN12C; HT-29; HOP-92; SK-MEL-2; NCI-H522; IGROV-1; Hs-578T; TK-10; UO-31; SK-OV-3; RXF 393; NCI-H226.
Experiment in all cases: NCI tumour cell line growth inhibition, 48 h

The structures appear in SMILES notation.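 Five concentrations, 48 hours, 96-well plates. GI50 = concentration required for 50% inhibition of growth.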 Activity calls are given as the source filed them. Cut-off read from the data, not from the text of the source: active = GI50 up to about 1.1 µM and inactive = higher. Bounds are passed on as bounds.

`CCOC(=O)C1C(c2ccc(OC)cc2)c2c(n[nH]c2O)CC1(C)O` (stereo not drawn): the GI50 in the test with T47D, in the test with HL-60, in the test on NCI/ADR-RES, with A498, with EKVX and with NCI-H460 was > 100 µM (inactive) each time. Moreover, the GI50 in the test on U-251, in the test on MDA-MB-231, in the test on SN12C, in the test with HT-29, in the test with HOP-92 and in the test with SK-MEL-2 was > 100 µM (inactive) in each case. Besides, the GI50 with NCI-H522, in the test with IGROV-1, in the test on Hs-578T, in the test on TK-10 and in the test with UO-31 was > 100 µM (inactive) in each case.
As for `O=C(/C=C/c1ccc2c(c1)OCO2)Cc1nc2ncccc2[nH]c1=O`, the GI50 was 78.3 µM (inactive) with T47D; 98.9 µM (inactive) in the test with SK-OV-3; > 100 µM (inactive) in the test on HL-60; > 100 µM (inactive) in the test on NCI/ADR-RES; > 100 µM (inactive) in the test on A498; > 100 µM (inactive) in the test on EKVX. Besides, the GI50 with RXF 393 is 49.4 µM (inactive); with NCI-H460, > 100 µM (inactive); in the test with U-251, 31.1 µM (inactive); in the test on MDA-MB-231, > 100 µM (inactive); in the test on SN12C it was > 100 µM (inactive); with HT-29, > 100 µM (inactive). The GI50 in the test with HOP-92 was > 100 µM (inactive); with SK-MEL-2, > 100 µM (inactive); in the test on NCI-H522 it was 60.7 µM (inactive); in the test on IGROV-1 it was 94.6 µM (inactive); in the test with Hs-578T, 36.5 µM (inactive); with TK-10 it was 42.8 µM (inactive). Further, the GI50 with UO-31 was > 100 µM (inactive).
As to `CC1=C(\C=C/C(C)=C/C=C/C(C)=C/C=C/C=C(C)\C=C\C=C(C)/C=C/C2=C(C)CCCC2(C)C)C(C)(C)CCC1`, the GI50 is 19.5 µM (inactive) with T47D; > 100 µM (inactive) in the test with SK-OV-3; > 100 µM (inactive) in the test with NCI/ADR-RES; > 100 µM (inactive) in the test on A498; 33 µM (inactive) in the test with RXF 393; > 100 µM (inactive) in the test on NCI-H460. The GI50 in the test on U-251 was 56.2 µM (inactive); in the test on MDA-MB-231 it was > 100 µM (inactive); in the test on NCI-H226, > 100 µM (inactive); in the test with SN12C it was > 100 µM (inactive); in the test on HT-29, 56.4 µM (inactive); with SK-MEL-2, > 100 µM (inactive). For the same compound, the GI50 in the test with NCI-H522 is 35.4 µM (inactive); in the test with IGROV-1 it was > 100 µM (inactive); with Hs-578T it was 88.9 µM (inactive); with TK-10 it was > 100 µM (inactive); in the test with UO-31, > 100 µM (inactive).
Take `COc1cc([C@@H]2c3cc4c(cc3[C@@H](/N=C/c3ccc(C(=O)O[C@H]5C[C@H]6OC[C@@]6(OC(C)=O)[C@H]6[C@H](OC(=O)c7ccccc7)[C@]7(O)C[C@H](OC(=O)[C@H](OC(=O)c8ccc(/C=N/[C@@H]9c%10cc%11c(cc%10[C@@H](c%10cc(OC)c(O)c(OC)c%10)[C@H]%10C(=O)OC[C@@H]%109)OCO%11)cc8)[C@@H](NC(=O)c8ccccc8)c8ccccc8)C(C)=C([C@@H](OC(C)=O)C(=O)[C@]56C)C7(C)C)cc3)C3COC(=O)C32)OCO4)cc(C)c1O` (stereo partly drawn): the GI50 in the test with T47D is > 50 µM (inactive); with SK-OV-3 it was 9.2 µM (inactive); with HL-60, > 13.9 µM (inactive); in the test on NCI/ADR-RES, 15.2 µM (inactive); in the test with A498 it was 5.16 µM (inactive); in the test with EKVX, 14.5 µM (inactive). The GI50 in the test on RXF 393 is 2.96 µM (inactive); in the test on NCI-H460 it was 15.3 µM (inactive); with U-251 it was 13.3 µM (inactive); in the test with MDA-MB-231 it was > 25.2 µM (inactive); in the test on NCI-H226, 10.9 µM (inactive); in the test on SN12C, 18.8 µM (inactive). Also, the GI50 in the test on HT-29 is 10.9 µM (inactive); in the test with SK-MEL-2, 13.7 µM (inactive); in the test on NCI-H522, 9.06 µM (inactive); in the test with IGROV-1, 14.7 µM (inactive); with Hs-578T it was > 46 µM (inactive); with TK-10, > 50 µM (inactive).
In the case of `C=C(C)C1CC=C(C)C(=O)C1` (stereo not drawn) [CARVONE], the GI50 in the test on T47D, in the test on HL-60, in the test on NCI/ADR-RES, in the test with EKVX, with NCI-H460 and in the test on U-251 was > 100 µM (inactive) throughout. Further, the GI50 in the test with MDA-MB-231, with NCI-H226, with SN12C, in the test on HT-29, in the test with HOP-92 and in the test on SK-MEL-2 was > 100 µM (inactive) throughout. Moreover, the GI50 with NCI-H522, in the test on IGROV-1, with Hs-578T, with TK-10 and with UO-31 was > 100 µM (inactive) each time.
Regarding `CN(C)CCOc1ccc(I)cc1Cc1ccccc1`, the GI50 in the test with T47D is 3.81 µM (inactive); in the test with SK-OV-3, 18.6 µM (inactive); in the test with HL-60, 4.74 µM (inactive); in the test on NCI/ADR-RES it was 13.8 µM (inactive); in the test with A498, 13.9 µM (inactive); in the test with EKVX, 14.5 µM (inactive). For the same compound, the GI50 with RXF 393 was 15 µM (inactive); in the test on NCI-H460, 11.9 µM (inactive); in the test on U-251, 12.4 µM (inactive); in the test on MDA-MB-231, 3.89 µM (inactive); in the test with NCI-H226, 15.9 µM (inactive); with SN12C, 12.1 µM (inactive). The GI50 was 4.36 µM (inactive) in the test on HT-29; 15 µM (inactive) in the test on SK-MEL-2; 11.9 µM (inactive) with NCI-H522; 4.6 µM (inactive) with IGROV-1; 11.1 µM (inactive) in the test on Hs-578T; 12.7 µM (inactive) with TK-10. Further, the GI50 with UO-31 is 7.69 µM (inactive).
Turning to `CCC1(O)CC(OC2CC(N(C)C)C(OC3CC(O)C(OC4OC(C)C(=O)C=C4N)C(C)O3)C(C)O2)c2c(cc3c(c2O)C(=O)c2c(O)cccc2C3=O)C1C(=O)OC` (stereo not drawn), the GI50 with T47D was 0.0292 µM (active); in the test on SK-OV-3, 0.0518 µM (active); with HL-60, 0.0177 µM (active); in the test on NCI/ADR-RES it was 1.25 µM (inactive); with EKVX it was 0.0224 µM (active); in the test on NCI-H460, < 0.001 µM (active). The GI50 in the test with U-251 was 0.00385 µM (active); in the test on MDA-MB-231, 0.29 µM (active); with NCI-H226, 0.115 µM (active); in the test on SN12C it was 0.158 µM (active); with HT-29, 0.00889 µM (active); in the test with HOP-92 it was 0.0746 µM (active). In addition, the GI50 in the test on SK-MEL-2 was 0.0221 µM (active); in the test on NCI-H522, 0.0355 µM (active); in the test with IGROV-1 it was 0.00302 µM (active); with Hs-578T, 0.12 µM (active); in the test with TK-10, 0.06 µM (active); with UO-31 it was 0.167 µM (active).
On to `CC(C)(C)n1c(=O)n(C(=O)C(Cl)(Cl)Cl)n(C(=O)C(Cl)(Cl)Cl)c1=O`, for which the GI50 with T47D, in the test with SK-OV-3, in the test on HL-60, in the test on NCI/ADR-RES, in the test with EKVX and in the test with RXF 393 was > 100 µM (inactive) throughout. The GI50 in the test on NCI-H460, in the test with U-251, in the test on MDA-MB-231, with NCI-H226, in the test on SN12C and in the test on HT-29 was > 100 µM (inactive) each time. The GI50 in the test on HOP-92, in the test with SK-MEL-2, with NCI-H522, in the test on IGROV-1, in the test with Hs-578T and in the test on TK-10 was > 100 µM (inactive) each time. Besides, the GI50 in the test on UO-31 was > 100 µM (inactive).
For `COc1cc2c(cc1OC)-c1[nH]c3ccc([N+](=O)[O-])cc3c1CC(=O)N2`, the GI50 in the test on T47D was 7.28 µM (inactive); in the test with SK-OV-3 it was 3.15 µM (inactive); in the test on HL-60, 2.94 µM (inactive); with NCI/ADR-RES, > 100 µM (inactive); with A498, 2.98 µM (inactive); in the test on EKVX, 5.87 µM (inactive). Further, the GI50 is 1.43 µM (inactive) in the test with RXF 393; 1.95 µM (inactive) in the test on NCI-H460; 3.32 µM (inactive) in the test with U-251; 4.15 µM (inactive) in the test on MDA-MB-231; 0.78 µM (active) in the test on NCI-H226; 2.37 µM (inactive) in the test with SN12C. The GI50 in the test with HT-29 was 3.83 µM (inactive); in the test on SK-MEL-2, 3.7 µM (inactive); in the test with IGROV-1, 2.39 µM (inactive); in the test on Hs-578T it was 0.2 µM (active); with TK-10, 2.37 µM (inactive); in the test with UO-31, 2.36 µM (inactive).
For `CN(C)CCNC(=O)c1cccc2c(NC(CCCNC(=N)N)C(=O)O)c3ccccc3[n+](C)c12` (stereo not drawn), the GI50 was 80.9 µM (inactive) in the test on T47D; > 100 µM (inactive) in the test with SK-OV-3; 27.7 µM (inactive) in the test on NCI/ADR-RES; > 100 µM (inactive) with A498; > 100 µM (inactive) with EKVX; 49.3 µM (inactive) in the test on NCI-H460. The GI50 in the test with U-251 is > 100 µM (inactive); in the test with MDA-MB-231 it was 37.1 µM (inactive); with NCI-H226, 39.5 µM (inactive); in the test on SN12C, 32.4 µM (inactive); in the test on HT-29 it was > 100 µM (inactive); with SK-MEL-2, > 100 µM (inactive). In addition, the GI50 in the test on IGROV-1 was 59 µM (inactive); with Hs-578T, > 100 µM (inactive); with TK-10 it was > 100 µM (inactive); in the test on UO-31 it was > 100 µM (inactive).

The values above are taken from ChEMBL document CHEMBL1201862, “PubChem BioAssay data set” (2004).
